Measured values reported in patent publication US20130280169A1, “CENTRAL NERVOUS SYSTEM TISSUE-LABELING COMPOSITION, METHOD FOR LABELING CENTRAL NERVOUS SYSTEM TISSUE, AND SCREENING METHOD USING CENTRAL NERVOUS SYSTEM TISSUE-LABELING COMPOSITION” (CANON KABUSHIKI KAISHA, priority 2009, published 2013).
Values belong to the compound of their own block, whether it stands above or below them.

Tests used:
[1] = Excitation and fluorescence wavelength by FL4500 fluorescence spectrophotometer; conditions: for λem / λex: 10 mg/mL DMSO solution diluted 500-fold with distilled water
[2] = system: central nervous system tissues of juvenile zebrafish (7 dpf); experiment: Labeling the central nervous system tissue of live 7 dpf juvenile zebrafish by immersion in labeling solution
Method: Subsequently, the labeling solution 1 in the well was removed and replaced by 1 mL of distilled water. This operation was repeated three times. Then, juvenile zebrafish was removed from the well and embedded in 5% low melting point agarose gel on a slide glass so as to restrict movement, and the state of labeling in the central nervous system tissues were observed from the lateral side of zebrafish by a fluorescence stereomicroscope (manufactured by Leica Microsystems, MZ16FA). Also, the brain nerve tissues were observed from the parietal region by a confocal microscope (manufactured by Carl Zeiss, Inc., Pascal Exciter).

[3] = system: brain of juvenile zebrafish; conditions: according to Patent Literature 3; cited from earlier work
[4] = system: mouse brain tissue section; experiment: Labeling of a mouse brain tissue section, confocal microscope; conditions: 3-month-old B10 mouse, 10 μm frozen section, 1 ug/mL in PBS, incubation one hour
Method: (§1) A 3-month-old B10 mouse was sacrificed by diethyl ether anesthesia, and the brain is collected. The brain thus removed is embedded in an OCT compound, and then frozen in isopentane cooled with liquid nitrogen. The resulting brain was sliced into thin sections of approximately 10 μm in thickness in a cryostat cooled to −20° C. The thin sections were then placed on a slide glass and dried, whereby a section of the brain tissue was prepared. To the section of […] tissue thus prepared, a 1 ug/mL solution of the compound (13) in PBS was added, followed by incubation for one hour. After one hour, the slide glass was washed with PBST (PBS containing 0.2% Triton-X100) three times, and then sealed with a cover glass. Upon observation of the slide glass by a confocal microscope (manufactured by Carl Zeiss, Inc., Pascal
as §1, with “(27)” for “(13)”, “After one hour, the slide glass was washed with PBST (PBS containing 0.2% Triton-X100) three times, and then sealed with a cover glass. Upon observation of the slide glass by a confocal microscope (manufactured by Carl Zeiss, Inc., Pascal” left out

mouse brain = experiment: Labeling of mouse brain after intraperitoneal administration; format: in vivo; conditions: 3-month-old B10 mouse, 0.2 ml single intraperitoneal dose, brain collected after one hour
Method: The compound (13) is added to an equimolar solution of NaOH so that a concentration of 10 mg/ml is reached, and the resulting mixture is centrifuged at 14 krpm for five minutes to obtain a supernatant. Then, 0.2 ml of the supernatant thus obtained is intraperitoneally administered to a 3-month-old B10 mouse in a single dose. After one hour, the animal thus treated is sacrificed by diethyl ether anesthesia, and the brain is collected. The brain thus removed is embedded in an OCT compound, and then frozen in isopentane cooled with liquid nitrogen. The resulting brain was sliced into thin sections of approximately 10 μm in thickness in a cryostat cooled to −20° C. The thin sections were then placed on a slide glass and dried, whereby a section of the brain tissue was prepared. The brain tissue section thus prepared was observed under a confocal microscope (manufactured by Carl Zeiss, Inc., Pascal Exciter).
After one hour, the animal thus treated is sacrificed by diethyl ether anesthesia, and the brain is collected. The brain thus removed is embedded in an OCT compound, and then frozen in isopentane cooled with liquid nitrogen. The resulting brain was sliced into thin sections of approximately 10 μm in thickness in a cryostat cooled to −20° C. The thin sections were then placed on a slide glass and dried, whereby a section of the brain tissue was prepared. […]

[5] = 5 μM chloroform solution (Examples 30 to 34)
[6] = 7 dpf juvenile zebrafish, labeling solution 1 μg/mL, one hour (Table 3)
[7] = 7 dpf juvenile zebrafish, labeling solution 1 μg/mL, one hour
[8] = aqueous solution, 10 mg/mL DMSO solution diluted 500-fold with distilled water (Table 2)
[9] = juvenile zebrafish, labeling solution 1 μg/mL, one hour (Table 2)
[10] = 5 ηM DMSO solution (Examples 35 to 46)

Excitation wavelength λex [1, 5]: 547
Fluorescence wavelength λem [1, 5]: 574
Compound: CCCCC(CC)CNc1ccc2c3c(cc(=O)n2CCCC)-c2ccccc2C(=O)c13 (stereo not drawn) [Compound 31]
Fluorescence sensitivity [2, 6]: +

Excitation wavelength λex [1, 10]: 518
Fluorescence wavelength λem [1, 10]: 647
Compound: CSc1ccc(N2c3ccc(/C=C4/SC(=S)N(CCC(=O)O)C4=O)cc3C3CCCC32)cc1 (stereo not drawn) [Compound 44]
Fluorescence sensitivity [2, 6]: ++

Excitation wavelength λex [1, 10]: 474
Fluorescence wavelength λem [1, 10]: 590
Compound: O=C(O)CCN1C(=O)/C(=C\c2cc(Br)c3c(c2)C2CCCC2N3c2ccc(Br)cc2)SC1=S (stereo not drawn) [Compound 34]
Fluorescence sensitivity [2, 6]: +

Excitation wavelength λex [1, 5]: 544
Fluorescence wavelength λem [1, 5]: 573
Compound: CCCCn1c(=O)cc2c3c(c(NCCC4=CCCCC4)ccc31)C(=O)c1ccccc1-2 [Compound 32]
Fluorescence sensitivity [2, 6]: +

Excitation wavelength λex [1, 10]: 521
Fluorescence wavelength λem [1, 10]: 634
Compound: COc1ccc(N2c3ccc(/C=C4/SC(=S)N(CCC(=O)O)C4=O)cc3C3CCCC32)cc1 (stereo not drawn) [Compound 35]
Fluorescence sensitivity [2, 6]: ++

Excitation wavelength λex [1, 10]: 452
Fluorescence wavelength λem [1, 10]: 540
Compound: CCn1c2ccccc2c2cc(/C=C3/SC(=S)N(CCC(=O)O)C3=O)ccc21 [Compound 41]
Fluorescence sensitivity [2, 6]: +

Excitation wavelength λex [1, 10]: 564
Fluorescence wavelength λem [1, 10]: 671
Compound: CCN1c2ccc(/C=C/C=C3/SC(=S)N(CCC(=O)O)C3=O)cc2C2CCCC21 (stereo not drawn) [Compound 43]
Fluorescence sensitivity [2, 6]: ++

Excitation wavelength λex [1, 10]: 509
Fluorescence wavelength λem [1, 10]: 593
Compound: CCN1c2ccc(/C=C3/SC(=S)N(CCC(=O)O)C3=O)cc2CC1C (stereo not drawn) [Compound 40]
Fluorescence sensitivity [2, 6]: ++

Excitation wavelength λex [1, 10]: 521
Fluorescence wavelength λem [1, 10]: 646
Compound: COc1ccc2cc(N3c4ccc(/C=C5/SC(=S)N(CCC(=O)O)C5=O)cc4C4CCCC43)ccc2c1 (stereo not drawn) [Compound 38]
Fluorescence sensitivity [2, 6]: +

Excitation wavelength λex [1, 5]: 544
Fluorescence wavelength λem [1, 5]: 573
Compound: CCCCOCCCNc1ccc2c3c(cc(=O)n2CCCC)-c2ccccc2C(=O)c13 [Compound 33]
Fluorescence sensitivity [2, 6]: +

Excitation wavelength λex [1, 10]: 510
Fluorescence wavelength λem [1, 10]: 584
Compound: O=C(O)CCN1C(=O)/C(=C\c2ccc3c(c2)C2CCCC2N3Cc2ccccc2)SC1=S (stereo not drawn) [Compound 36]
Fluorescence sensitivity [2, 6]: +

Excitation wavelength λex [1, 10]: 510
Fluorescence wavelength λem [1, 10]: 597
Compound: CCN1CCc2cc(/C=C3/SC(=S)N(CCC(=O)O)C3=O)ccc21 [Compound 45]
Fluorescence sensitivity ([2]; 7 dpf juvenile zebrafish, labeling solution 45 with 3 μg/mL dye compound, one hour (Table 3)): +

Excitation wavelength λex [1, 10]: 517
Fluorescence wavelength λem [1, 10]: 590
Compound: CN1c2ccc(/C=C3/SC(=S)N(CCC(=O)O)C3=O)cc2C2CCCC21 (stereo not drawn) [Compound 39]
Fluorescence sensitivity [2, 6]: ++

Excitation wavelength λex [1, 10]: 502
Fluorescence wavelength λem [1, 10]: 604
Compound: O=C(O)CCN1C(=O)/C(=C\c2ccc3c(c2)C2CCCC2N3c2ccccc2)SC1=S (stereo not drawn) [Compound 37]
Fluorescence sensitivity [2, 6]: ++

Excitation wavelength λex [1, 10]: 519
Fluorescence wavelength λem [1, 10]: 592
Compound: CCCN1c2ccc(/C=C3/SC(=S)N(CCC(=O)O)C3=O)cc2C2CCCC21 (stereo not drawn) [Compound 42]
Fluorescence sensitivity [2, 6]: ++

Further lines, the compound ahead of its results:

Compound: O=C1c2ccccc2-c2cc(=O)n(C3CCCCC3)c3ccc(NC4CCCCC4)c1c23 [Compound 29]
Excitation wavelength λex [1, 5]: 547
Fluorescence wavelength λem [1, 5]: 592
Fluorescence sensitivity [2, 6]: +

Compound: O=C1OC2(c3ccc(O)cc3Oc3cc(O)ccc32)c2ccccc21 [Fluorescein, reference compound]
Migration of administered dye into the brain confirmed up to [3]: ≤ 8 dpf
Labeling property [2, 7]: −

Compound: CCN(CC)c1ccc2cc(-c3nc4ccccc4[nH]3)c(=N)oc2c1 [Compound 18]
Excitation wavelength λex [1, 8]: 464
Fluorescence wavelength λem [1, 8]: 514
Stokes shift λem − λex [1, 8]: 50
Fluorescence sensitivity [2, 9]: ++
Labeling property [2, 9]: ++

Compound: CCCCNc1ccc2c3c(cccc13)C(=O)N(CCCC)C2=O [(12)]
λem ([1]; aqueous solution): 551
λex ([1]; aqueous solution): 466
Labeling property [2, 7]: ++

Compound: COc1ccc2cc(-c3nc4ccccc4[nH]3)c(=O)oc2c1 [Compound 20]
Excitation wavelength λex [1, 8]: 380
Fluorescence wavelength λem [1, 8]: 470
Stokes shift λem − λex [1, 8]: 90
Fluorescence sensitivity [2, 9]: +
Labeling property [2, 9]: +

Compound: CCN(CC)c1ccc2cc3c(oc2c1)c(C#N)c(=N)n1c2ccccc2nc31 [(10)]
λem ([1]; aqueous solution): 577
λex ([1]; aqueous solution): 556
Labeling property [2, 7]: ++

Compound: CCN(CC)c1ccc2cc3c(oc2c1)c(C#N)c(=O)n1c2ccccc2nc31 [(11)]
λem ([1]; aqueous solution): 576
λex ([1]; aqueous solution): 555
Labeling property [2, 7]: +

Compound: CCN(CC)c1ccc2cc(-c3nc4ccc(C)cc4o3)c(=O)oc2c1 [Compound 27]
Labeling property in a mouse brain tissue section [4]: confirmed to exert a labeling property
Excitation wavelength λex [1, 8]: 472
Fluorescence wavelength λem [1, 8]: 504
Stokes shift λem − λex [1, 8]: 32
Fluorescence sensitivity [2, 9]: ++
Labeling property [2, 9]: ++

Compound: rhodamine 123
Migration of administered dye into the brain confirmed up to [3]: ≤ 5 dpf

Compound: O=c1oc2ccc3ccccc3c2cc1-c1nc2ccccc2[nH]1 [Compound 28]
Excitation wavelength λex [1, 8]: 410
Fluorescence wavelength λem [1, 8]: 540
Stokes shift λem − λex [1, 8]: 130
Fluorescence sensitivity [2, 9]: +
Labeling property [2, 9]: +

Compound: CCN1c2ccc(/C=C3/SC(=S)N(CCC(=O)O)C3=O)cc2C2CCCC21 (stereo not drawn) [(13)]
Labeling property in a mouse brain tissue section [4]: confirmed to exert a labeling property
Labeling property in a mouse brain by intraperitoneal administration (mouse brain): confirmed to exert a labeling property
λem ([1]; aqueous solution): 604
λex ([1]; aqueous solution): 576
Labeling property [2, 7]: ++

Compound: CCCN(CCC)c1ccc2cc(-c3nc4ccccc4[nH]3)c(=O)oc2c1 [Compound 25]
Excitation wavelength λex [1, 8]: 463
Fluorescence wavelength λem [1, 8]: 509
Stokes shift λem − λex [1, 8]: 46
Fluorescence sensitivity [2, 9]: ++
Labeling property [2, 9]: ++

Compound: Cc1cc(-c2ccc(/N=N/c3ccc4c(S(=O)(=O)O)cc(S(=O)(=O)O)c(N)c4c3O)c(C)c2)ccc1/N=N/c1ccc2c(S(=O)(=O)O)cc(S(=O)(=O)O)c(N)c2c1O [Evans blue]
Migration of administered dye into the brain confirmed up to [3]: up to 4 dpf

Compound: CCN1C(=S)N(c2ccccc2)C(=O)/C1=C/C=C1/Sc2ccccc2N1CC [(14)]
λem ([1]; aqueous solution): 560
λex ([1]; aqueous solution): 530
Labeling property [2, 7]: ++

Compound: COc1ccc2cc(-c3nc4ccccc4[nH]3)c(=N)oc2c1 [Compound 16]
Excitation wavelength λex [1, 8]: 380
Fluorescence wavelength λem [1, 8]: 470
Stokes shift λem − λex [1, 8]: 90
Fluorescence sensitivity [2, 9]: +
Labeling property [2, 9]: +

Compound: CCN(CC)c1ccc2cc(-c3nc4ccccc4s3)c(=O)oc2c1 [Compound 15]
Excitation wavelength λex [1, 8]: 469
Fluorescence wavelength λem [1, 8]: 555
Stokes shift λem − λex [1, 8]: 86
Fluorescence sensitivity [2, 9]: ++
Labeling property [2, 9]: ++

Compound: CCN(CC)c1ccc2cc(-c3nc4cc(Cl)ccc4o3)c(=O)oc2c1 [Compound 23]
Excitation wavelength λex [1, 8]: 422
Fluorescence wavelength λem [1, 8]: 476
Stokes shift λem − λex [1, 8]: 54
Fluorescence sensitivity [2, 9]: +
Labeling property [2, 9]: ++

Compound: CCCCn1c(=O)cc2c3c(c(NC4CCCCC4)ccc31)C(=O)c1ccccc1-2 [Compound 30]
Excitation wavelength λex [1, 5]: 548
Fluorescence wavelength λem [1, 5]: 575
Fluorescence sensitivity [2, 6]: +

Compound: Cn1c(=O)cc2c3c(c(NC4CCCCC4)ccc31)C(=O)c1ccccc1-2 [(8)]
λem ([1]; aqueous solution): 619
λex ([1]; aqueous solution): 599
Labeling property [2, 7]: ++
State of labeling of optic nerve, optic tract, superior colliculus (optic tectum), pituitary gland, tectospinal (tectobulbar) tract and reticular formation ([2]; 7 dpf juvenile zebrafish, one hour, fluorescence stereomicroscope and confocal microscope): intensely labeled

Compound: COc1cccc2cc(-c3nc4ccccc4[nH]3)c(=O)oc12 [Compound 22]
Excitation wavelength λex [1, 8]: 360
Fluorescence wavelength λem [1, 8]: 510
Stokes shift λem − λex [1, 8]: 150
Fluorescence sensitivity [2, 9]: +
Labeling property [2, 9]: +

Compound: N=c1oc2ccc3ccccc3c2cc1-c1nc2ccccc2[nH]1 [Compound 17]
Excitation wavelength λex [1, 8]: 410
Fluorescence wavelength λem [1, 8]: 490
Stokes shift λem − λex [1, 8]: 80
Fluorescence sensitivity [2, 9]: +
Labeling property [2, 9]: +

Compound: Cc1ccc2oc(=O)c(-c3nc4ccccc4[nH]3)cc2c1 [Compound 24]
Excitation wavelength λex [1, 8]: 380
Fluorescence wavelength λem [1, 8]: 490
Stokes shift λem − λex [1, 8]: 110
Fluorescence sensitivity [2, 9]: +
Labeling property [2, 9]: +

Compound: Cn1c(=O)cc2c3c(c(NCc4ccccc4)ccc31)C(=O)c1ccccc1-2 [(9)]
λem ([1]; aqueous solution): 556
λex ([1]; aqueous solution): 480
Labeling property [2, 7]: ++
